Data on ten compounds can be found in BindingDB's records for doi:10.7270/Q2DV1HGT (Burnham Center For Chemical Genomics, 2012).

Broadly, the IC50 is the concentration at which inhibition is half-maximal. Lower therefore signals inhibition by little substance.

This assay has as its target T1, Tyrosine-protein phosphatase non-receptor type 5 (Homo sapiens, UniProt P54829).
T1 sequence (P54829 whole entry): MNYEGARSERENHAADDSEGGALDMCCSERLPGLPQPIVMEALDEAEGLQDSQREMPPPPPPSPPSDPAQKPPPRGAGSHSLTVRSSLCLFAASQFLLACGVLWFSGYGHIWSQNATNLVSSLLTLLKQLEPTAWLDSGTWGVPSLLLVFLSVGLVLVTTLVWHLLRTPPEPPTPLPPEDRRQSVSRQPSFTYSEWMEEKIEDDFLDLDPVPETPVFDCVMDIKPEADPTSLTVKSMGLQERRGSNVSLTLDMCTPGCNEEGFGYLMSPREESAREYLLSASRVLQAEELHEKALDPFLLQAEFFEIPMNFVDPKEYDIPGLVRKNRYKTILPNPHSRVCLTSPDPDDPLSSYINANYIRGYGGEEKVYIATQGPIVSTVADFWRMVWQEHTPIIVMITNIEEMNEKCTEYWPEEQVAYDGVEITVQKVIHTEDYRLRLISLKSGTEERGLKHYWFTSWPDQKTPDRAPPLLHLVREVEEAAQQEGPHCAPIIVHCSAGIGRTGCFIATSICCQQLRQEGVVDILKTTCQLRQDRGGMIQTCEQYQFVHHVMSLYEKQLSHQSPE
As to the kind of experiment: PTPN5 enzyme inhibition – biochemical, fluorescence intensity, uHTS hits, confirmation (AID 602372).
`S=C1N=C(C23CC4CC(CC(C4)C2)C3)CC(c2ccc3c(c2)OCO3)N1` (stereo not given) had an IC50 of 56.8 µM. That is a double-digit micromolar value. In the case of `CCOc1cc(CN=Nc2nc(O)c(CC(=O)O)s2)ccc1OCc1ccc(Cl)cc1Cl` [2-[2-[(N''E)-N''-[4-(2,4-dichlorobenzyl)oxy-3-ethoxy-benzylidene]hydrazino]-4-keto-2-thiazolin-5-yl]acetic acid] it was 4.09 µM. The result for `C=c1c(O)c(O)c(=C2C(=O)C(=O)C(C)C(=O)C2=O)c(O)c1O` (stereo not given) [(3E)-5-hydroxy-6-methyl-3-(2,3,5-trihydroxy-4-methyl-6-oxo-1-cyclohexa-2,4-dienylidene)cyclohex-5-ene-1,2,4-trione] reads over 80 µM. The result for `O=C1C(=O)N(CCCO)C(c2ccc(Br)cc2)C1C(=O)c1ccc(Br)cc1` (stereo not given) [(4E)-5-(4-bromophenyl)-4-[(4-bromophenyl)-oxidanyl-methylidene]-1-(3-oxidanylpropyl)pyrrolidine-2,3-dione] reads 36.2 µM; that for `S=C1N=C2C(=C3SCCS3)CCCC2C(c2ccccc2)N1` (stereo not given) [MLS000516376], 22.6 µM. In turn, `CCN(CC)P(=O)(NC(=O)C(Cl)(Cl)Cl)N(CC)CC` [MLS000564159] returned an IC50 of over 80 µM. `CSc1ccc(CN=Nc2ccc(S(=O)(=O)Nc3ccccc3C(=O)O)cc2[N+](=O)[O-])cc1` [MLS002245633]: the IC50 worked out at 4.12 µM.

The compound `O=C(N/N=C/C1C=CC=CC1=O)c1cccc([N+](=O)[O-])c1` (stereo not given) [MLS002667988] had an IC50 of 8.95 µM.

`COc1ccc(OC)c(-n2c(O)c3o[nH]c(-c4ccccc4Cl)c-3c2=O)c1` [SMR000046218] came in with an IC50 of 24.4 µM. In the case of `COc1ccc(CN=Nc2nc(O)c(CC(=O)O)s2)cc1OCc1ccc(Cl)cc1Cl` [[2-({3-[(2,4-dichlorobenzyl)oxy]-4-methoxybenzylidene}hydrazono)-4-oxo-1,3-thiazolidin-5-yl]acetic acid] it was 9.72 µM.
